The target in the test is T1, papain (Carica papaya, UniProt P00784).
T1 sequence (P00784 134-345): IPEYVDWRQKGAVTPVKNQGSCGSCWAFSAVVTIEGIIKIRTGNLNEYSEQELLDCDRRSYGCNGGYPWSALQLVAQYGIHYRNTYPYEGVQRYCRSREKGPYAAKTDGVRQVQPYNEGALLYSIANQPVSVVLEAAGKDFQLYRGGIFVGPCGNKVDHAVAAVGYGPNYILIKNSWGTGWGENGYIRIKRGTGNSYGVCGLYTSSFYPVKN
Description: protein-probe time-resolved luminescence digestion assay, heat-denatured carbonic anhydrase substrate ([…] with native substrate). Type of test: biochemical.

Regarding `CC(C)C[C@H](NC(=O)[C@H]1O[C@@H]1C(=O)O)C(=O)NCCCCN=C(N)N` [E-64], it took 8.9 ± 0.9 nM to reach half-maximal inhibition (IC50).

The values are drawn from article PMC8231992, “Protease Substrate-Independent Universal Assay for Monitoring Digestion of Native Unmodified Proteins” (International Journal of Molecular Sciences, 2021).
